Measured values from ChEMBL document CHEMBL5352469, “Solubility-driven optimization of benzothiopyranone salts leading to a preclinical candidate with improved pharmacokinetic properties and activity against Mycobacterium tuberculosis” (Eur J Med Chem, 2023).

Assays:
[1] = tested on: Mycobacterium tuberculosis; assay: Antibacterial activity against Mycobacterium tuberculosis H37Rv BALB/c mouse model assessed as reduction in CFU in lungs at 25 mg/kg via oral gavage for 30 days (reference value: 5.92 +/-0.29); type: functional; settings: time 30 day
[2] = tested on: Mycobacterium tuberculosis; assay: Antibacterial activity against Mycobacterium tuberculosis H37Rv BALB/c mouse model assessed as reduction in delta CFU in lungs at 25 mg/kg via oral gavage for 30 days; type: functional; settings: time 30 day
[3] = Apparent permeability across apical to basolateral side in human Caco-2 cells incubated for 21 days; type: ADME, cell-based; settings: time 21 day
[4] = Tmax in Balb/c mouse at 50 mg/kg, po measured upto 24 hrs by LC/MS/MS analysis; type: ADME, organism-based; settings: in vivo
[5] = Cmax in Balb/c mouse at 5 mg/kg, iv measured upto 24 hrs by LC/MS/MS analysis; type: ADME, organism-based; parameters: dose 5 mg/kg, time < 24 hrs, route iv; settings: in vivo
[6] = AUC (0 to t) in Balb/c mouse at 50 mg/kg, po measured upto 24 hrs by LC/MS/MS analysis; type: ADME, organism-based; parameters: dose 50 mg/kg, time < 24 hrs, route po; settings: Balb/c, in vivo
[7] = Oral bioavailability in Balb/c mouse at 50 mg/kg measured upto 24 hrs by LC/MS/MS analysis; type: ADME, organism-based; settings: Balb/c, in vivo
[8] = Elimination half life in Balb/c mouse at 5 mg/kg, iv measured upto 24 hrs by LC/MS/MS analysis; type: ADME, organism-based; settings: in vivo, read-out: beta t1/2 (converted)
[9] = AUC (0 to t) in Balb/c mouse at 5 mg/kg, iv measured upto 24 hrs by LC/MS/MS analysis; type: ADME, organism-based; parameters: time < 24 hrs, dose 5 mg/kg, route iv; settings: Balb/c, in vivo
[10] = Cmax in Balb/c mouse at 50 mg/kg, po measured upto 24 hrs by LC/MS/MS analysis; type: ADME, organism-based; parameters: time < 24 hrs, dose 50 mg/kg, route po; settings: in vivo
[11] = Aqueous solubility of compound by HPLC-PDA method; type: physicochemical; settings: buffer; read-out: solubility
[12] = Apparent permeability across basolateral to apical side in human Caco-2 cells incubated for 21 days; type: ADME, cell-based; settings: time 21 day
[13] = Elimination half life in Balb/c mouse at 50 mg/kg, po measured upto 24 hrs by LC/MS/MS analysis; type: ADME, organism-based; settings: in vivo, read-out: beta t1/2 (converted)
[14] = Efflux ratio of apparent permeability across basolateral to apical side over apical to basolateral side in human Caco-2 cells; type: ADME, cell-based
[15] = Chemical stability of the compound under 4500 +/- 500 lx light condition by measuring compound purity incubated for 10 days by HPLC-PDA method relative to initial purity; type: physicochemical; settings: time 10 day
[16] = Chemical stability of the compound under 60 degree C high temperature by measuring compound purity incubated for 10 days by HPLC-PDA method analysis relative to initial purity; type: physicochemical; settings: time 10 day
[17] = Chemical stability of the compound under 92.5% humidity by measuring compound purity incubated for 10 days by HPLC-PDA method relative to initial purity; type: physicochemical; settings: time 10 day
[18] = Cmax in Sprague-Dawley rat at 50 mg/kg, po measured upto 24 hrs by LC/MS/MS analysis; type: ADME, organism-based; parameters: time < 24 hrs, dose 50 mg/kg, route po; settings: in vivo
[19] = Lipophilicity, log D of the compound in octanol/water at pH 7.6 incubated for 72 hrs under shaking condition by shake flask based HPLC-PDA method; type: physicochemical; settings: pH 7.6
[20] = Lipophilicity, log D of the compound in octanol/water at pH 2.0 incubated for 72 hrs under shaking condition by shake flask based HPLC-PDA method; type: physicochemical; settings: pH 2
[21] = Cmax in Sprague-Dawley rat at 5 mg/kg, iv measured upto 24 hrs by LC/MS/MS analysis; type: ADME, organism-based; parameters: time < 24 hrs, dose 5 mg/kg, route iv; settings: in vivo
[22] = Clearance in Sprague-Dawley rat at 5 mg/kg, iv measured upto 24 hrs by LC/MS/MS analysis; type: ADME, organism-based; settings: in vivo
[23] = MRT (0 to infinity) in Sprague-Dawley rat at 5 mg/kg, iv measured upto 24 hrs by LC/MS/MS analysis; type: ADME, organism-based; settings: in vivo
[24] = Lipophilicity, log D of the compound in octanol/water at pH 4.0 incubated for 72 hrs under shaking condition by shake flask based HPLC-PDA method; type: physicochemical; settings: pH 4
[25] = Lipophilicity, log D of the compound in octanol/water at pH 6.8 incubated for 72 hrs under shaking condition by shake flask based HPLC-PDA method; type: physicochemical; settings: pH 6.8
[26] = tested on: Mycobacterium tuberculosis; assay: Antibacterial activity against Mycobacterium tuberculosis H37Rv BALB/c mouse model assessed as reduction in delta CFU in lungs at 12.5 mg/kg via oral gavage for 30 days; type: functional; settings: time 30 day
[27] = AUC (0 to t) in Sprague-Dawley rat at 5 mg/kg, iv measured upto 24 hrs by LC/MS/MS analysis; type: ADME, organism-based; parameters: time < 24 hrs, dose 5 mg/kg, route iv; settings: in vivo
[28] = Tmax in Sprague-Dawley rat at 50 mg/kg, po measured upto 24 hrs by LC/MS/MS analysis; type: ADME, organism-based; settings: in vivo
[29] = MRT (0 to infinity) in Sprague-Dawley rat at 50 mg/kg, po measured upto 24 hrs by LC/MS/MS analysis; type: ADME, organism-based; settings: in vivo
[30] = tested on: Mycobacterium tuberculosis; assay: Antibacterial activity against Mycobacterium tuberculosis H37Rv BALB/c mouse model assessed as reduction in CFU in lungs at 12.5 mg/kg via oral gavage for 30 days (reference value: 5.35 +/-0.17); type: functional; settings: time 30 day
[31] = AUC (0 to infinity) in Sprague-Dawley rat at 50 mg/kg, po measured upto 24 hrs by LC/MS/MS analysis; type: ADME, organism-based; parameters: time < 24 hrs, dose 50 mg/kg, route po; settings: in vivo
[32] = Lipophilicity, log P of the compound in octanol/water incubated for 72 hrs under shaking condition by shake flask based HPLC-PDA method; type: physicochemical
[33] = Elimination half life in Sprague-Dawley rat at 50 mg/kg, po measured upto 24 hrs by LC/MS/MS analysis; type: ADME, organism-based; settings: in vivo, read-out: beta t1/2 (converted)
[34] = Elimination half life in Sprague-Dawley rat at 5 mg/kg, iv measured upto 24 hrs by LC/MS/MS analysis; type: ADME, organism-based; settings: in vivo, read-out: beta t1/2 (converted)
[35] = AUC (0 to infinity) in Sprague-Dawley rat at 5 mg/kg, iv measured upto 24 hrs by LC/MS/MS analysis; type: ADME, organism-based; parameters: time < 24 hrs, dose 5 mg/kg, route iv; settings: in vivo
[36] = tested on: Mycobacterium tuberculosis; assay: Antibacterial activity against Mycobacterium tuberculosis H37Rv by microplate alamar blue assay; type: functional
[37] = tested on: Mycobacterium tuberculosis; assay: Antibacterial activity against Mycobacterium tuberculosis H37Rv BALB/c mouse model assessed as reduction in CFU in lungs at 25 mg/kg via oral gavage for 30 days (reference value: 5.35 +/-0.17); type: functional; settings: time 30 day
[38] = AUC (0 to t) in Sprague-Dawley rat at 50 mg/kg, po measured upto 24 hrs by LC/MS/MS analysis; type: ADME, organism-based; parameters: dose 50 mg/kg, time < 24 hrs, route po; settings: in vivo
[39] = Oral bioavailability in Sprague-Dawley rat at 50 mg/kg measured upto 24 hrs by LC/MS/MS analysis; type: ADME, organism-based; settings: in vivo

Compound: NNC(=O)c1ccncc1 [ISONIAZID]
- Activity [1]: 3.64 log10CFU
- Activity [2]: 3.89 log10CFU

Compound: O=C(O)/C=C/C(=O)O.O=C(O)/C=C/C(=O)O.O=C(O)/C=C/C(=O)O.O=c1cc(N2CCN(CC3CCCCC3)CC2)sc2c([N+](=O)[O-])cc(C(F)(F)F)cc12.O=c1cc(N2CCN(CC3CCCCC3)CC2)sc2c([N+](=O)[O-])cc(C(F)(F)F)cc12
- Papp A→B [3]: 7.79 ×10⁻⁶ cm/s
- Tmax [4]: 0.67 h
- Cmax [5]: 2760 ng/mL
- AUC(0-t) at 24 h [6]: 3440 ng·h/mL
- bioavailability [7]: 18.9%
- half-life [8]: 6.98 h
- AUC(0-t) at 24 h [9]: 1990 ng·h/mL
- Cmax [10]: 542 ng/mL
- solubility [11]: 132 µg/mL
- Papp B→A [12]: 0.11 ×10⁻⁶ cm/s
- half-life [13]: 8.03 h

Compound: O=C(O)CC(O)(CC(=O)O)C(=O)O.O=c1cc(N2CCN(CC3CCCCC3)CC2)sc2c([N+](=O)[O-])cc(C(F)(F)F)cc12
- Papp A→B [3]: 2.52 ×10⁻⁶ cm/s
- Tmax [4]: 0.5 h
- efflux ratio [14]: 0.13
- Stability ([15]; 240 h): 91.3%
- Cmax [5]: 3780 ng/mL
- Stability ([16]; 240 h): 99.6%
- Stability ([17]; 240 h): 99.4%
- AUC(0-t) at 24 h [6]: 4440 ng·h/mL
- bioavailability [7]: 19.4%
- half-life [8]: 6.67 h
- AUC(0-t) at 24 h [9]: 2360 ng·h/mL
- Cmax [10]: 536 ng/mL
- solubility [11]: 143 µg/mL
- Papp B→A [12]: 0.33 ×10⁻⁶ cm/s
- half-life [13]: 6.19 h

Compound: O=C(O)CC(O)(CC(=O)O)C(=O)O.O=C(O)CC(O)(CC(=O)O)C(=O)O.O=C(O)CC(O)(CC(=O)O)C(=O)O.O=c1cc(N2CCN(CC3CCCCC3)CC2)sc2c([N+](=O)[O-])cc(C(F)(F)F)cc12.O=c1cc(N2CCN(CC3CCCCC3)CC2)sc2c([N+](=O)[O-])cc(C(F)(F)F)cc12
- Papp A→B [3]: 4.08 ×10⁻⁶ cm/s
- efflux ratio [14]: 0.1
- solubility [11]: 128 µg/mL
- Papp B→A [12]: 0.26 ×10⁻⁶ cm/s

Compound: O=C(O)/C=C\C(=O)O.O=c1cc(N2CCN(CC3CCCCC3)CC2)sc2c([N+](=O)[O-])cc(C(F)(F)F)cc12
- Cmax [18]: 282 ng/mL
- logD at 72 h [19]: > 4.24
- Papp A→B [3]: 3.1 ×10⁻⁶ cm/s
- Tmax [4]: 1.5 h
- efflux ratio [14]: 0.1
- remaining at 240 h ([15]; read-out: Stability): 100%
- logD at 72 h [20]: 1.31
- Cmax [5]: 3090 ng/mL
- remaining at 240 h ([16]; read-out: Stability): 100%
- remaining at 240 h ([17]; read-out: Stability): 100%
- Cmax [21]: 3880 ng/mL
- AUC(0-t) at 24 h [6]: 7110 ng·h/mL
- clearance [22]: 52.4 mL/min/kg
- MRT inf [23]: 2.46 h
- bioavailability [7]: 28%
- logD at 72 h [24]: 3.6
- half-life [8]: 6.61 h
- AUC(0-t) at 24 h [9]: 2570 ng·h/mL
- logD at 72 h [25]: > 4.24
- Activity [26]: 0.75 log10CFU
- AUC(0-t) at 24 h [27]: 1710 ng·h/mL
- Tmax [28]: 3.33 h
- Cmax [10]: 776 ng/mL
- MRT inf [29]: 5.91 h
- solubility [11]: 114 µg/mL
- Papp B→A [12]: 0.25 ×10⁻⁶ cm/s
- half-life [13]: 5.99 h
- Activity [30]: 4.6 log10CFU
- AUC(0-inf) [31]: 2180 ng·h/mL
- logP at 72 h [32]: 2.6
- half-life [33]: 4.56 h
- half-life [34]: 6.43 h
- AUC(0-inf) [35]: 1740 ng·h/mL
- MIC [36]: < 0.016 µg/mL
- Activity [37]: 2.12 log10CFU
- Activity [2]: 3.23 log10CFU
- AUC(0-t) at 24 h [38]: 2130 ng·h/mL
- bioavailability [39]: 12.5%
